Test results from ChEMBL document CHEMBL3991601, “The target landscape of clinical kinase drugs” (Science, 2017).
Activity calls are given as the source filed them.

Tests used:
[1] = molecular target: Tyrosine-protein kinase ABL2 (Homo sapiens, UniProt P42684)
[2] = molecular target: T1, Serine/threonine-protein kinase ULK1 (Homo sapiens, UniProt O75385)
T1 sequence (O75385 whole entry): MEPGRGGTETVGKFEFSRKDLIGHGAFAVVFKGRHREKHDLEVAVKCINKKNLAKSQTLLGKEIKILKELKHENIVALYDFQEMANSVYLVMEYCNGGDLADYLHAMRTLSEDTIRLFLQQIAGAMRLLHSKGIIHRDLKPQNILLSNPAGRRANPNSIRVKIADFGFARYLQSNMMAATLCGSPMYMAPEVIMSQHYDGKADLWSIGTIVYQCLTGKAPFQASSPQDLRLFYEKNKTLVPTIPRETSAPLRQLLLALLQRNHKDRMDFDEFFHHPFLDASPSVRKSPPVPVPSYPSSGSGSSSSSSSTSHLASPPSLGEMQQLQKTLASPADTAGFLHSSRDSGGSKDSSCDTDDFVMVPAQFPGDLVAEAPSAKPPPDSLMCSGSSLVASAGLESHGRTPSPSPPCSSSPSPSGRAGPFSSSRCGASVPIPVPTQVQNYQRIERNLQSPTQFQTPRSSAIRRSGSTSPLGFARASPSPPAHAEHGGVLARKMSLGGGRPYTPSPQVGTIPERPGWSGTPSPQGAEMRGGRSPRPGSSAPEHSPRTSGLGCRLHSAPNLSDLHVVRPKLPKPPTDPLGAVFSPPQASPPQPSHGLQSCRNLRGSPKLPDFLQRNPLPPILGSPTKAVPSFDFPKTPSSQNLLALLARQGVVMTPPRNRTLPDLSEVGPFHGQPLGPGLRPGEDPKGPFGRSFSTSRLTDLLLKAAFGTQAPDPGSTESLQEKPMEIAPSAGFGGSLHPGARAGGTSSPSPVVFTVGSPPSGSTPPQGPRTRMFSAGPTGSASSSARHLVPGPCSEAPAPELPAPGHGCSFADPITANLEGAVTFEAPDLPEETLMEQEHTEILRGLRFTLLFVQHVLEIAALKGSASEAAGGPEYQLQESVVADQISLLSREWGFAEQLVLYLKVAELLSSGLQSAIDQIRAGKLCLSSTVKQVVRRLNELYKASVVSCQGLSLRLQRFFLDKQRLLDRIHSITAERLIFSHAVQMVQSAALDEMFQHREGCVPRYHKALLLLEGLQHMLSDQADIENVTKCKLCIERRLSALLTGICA

[3] = molecular target: Chromodomain-helicase-DNA-binding protein 4 (Homo sapiens, UniProt Q14839)
[4] = molecular target: T2, Bifunctional phosphoribosylaminoimidazole carboxylase/phosphoribosylaminoimidazole succinocarboxamide synthetase (Homo sapiens, UniProt P22234)
T2 sequence (P22234 whole entry): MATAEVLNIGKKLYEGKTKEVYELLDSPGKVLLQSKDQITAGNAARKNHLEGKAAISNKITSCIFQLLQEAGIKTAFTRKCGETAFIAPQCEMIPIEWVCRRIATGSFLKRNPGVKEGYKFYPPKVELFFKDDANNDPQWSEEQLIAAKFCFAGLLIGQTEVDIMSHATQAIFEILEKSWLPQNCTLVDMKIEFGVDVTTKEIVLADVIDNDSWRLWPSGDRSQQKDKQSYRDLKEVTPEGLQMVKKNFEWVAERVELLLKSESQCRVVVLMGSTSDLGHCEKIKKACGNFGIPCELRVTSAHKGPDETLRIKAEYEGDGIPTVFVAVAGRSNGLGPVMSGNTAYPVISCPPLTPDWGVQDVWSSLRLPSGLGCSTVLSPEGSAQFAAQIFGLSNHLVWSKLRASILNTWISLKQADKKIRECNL

[5] = molecular target: T3, Heme oxygenase 2 (Homo sapiens, UniProt P30519)
T3 sequence (P30519 whole entry): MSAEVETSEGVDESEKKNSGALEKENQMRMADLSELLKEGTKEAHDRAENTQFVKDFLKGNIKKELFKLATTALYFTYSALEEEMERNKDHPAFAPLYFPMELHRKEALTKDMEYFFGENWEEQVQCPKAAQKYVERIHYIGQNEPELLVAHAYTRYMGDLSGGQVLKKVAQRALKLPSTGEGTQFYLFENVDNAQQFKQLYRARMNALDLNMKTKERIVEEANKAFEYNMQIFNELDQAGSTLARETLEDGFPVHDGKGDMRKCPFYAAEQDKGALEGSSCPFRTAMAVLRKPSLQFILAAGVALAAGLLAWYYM

[6] = molecular target: T4, Ferrochelatase, mitochondrial (Homo sapiens, UniProt P22830)
T4 sequence (P22830 whole entry): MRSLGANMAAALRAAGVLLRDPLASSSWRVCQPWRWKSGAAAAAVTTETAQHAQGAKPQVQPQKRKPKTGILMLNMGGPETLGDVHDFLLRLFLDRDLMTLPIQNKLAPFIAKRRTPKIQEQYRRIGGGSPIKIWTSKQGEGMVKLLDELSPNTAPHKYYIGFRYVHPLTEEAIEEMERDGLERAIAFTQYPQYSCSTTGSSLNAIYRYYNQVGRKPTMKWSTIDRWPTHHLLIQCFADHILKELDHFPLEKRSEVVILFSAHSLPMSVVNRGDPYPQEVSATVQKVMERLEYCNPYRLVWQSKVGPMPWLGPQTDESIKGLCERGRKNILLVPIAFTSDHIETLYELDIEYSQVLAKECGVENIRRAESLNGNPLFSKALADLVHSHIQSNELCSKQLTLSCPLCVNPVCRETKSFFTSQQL

[7] = molecular target: T5, Serine/threonine-protein kinase STK11 (Homo sapiens, UniProt Q15831)
T5 sequence (Q15831 whole entry): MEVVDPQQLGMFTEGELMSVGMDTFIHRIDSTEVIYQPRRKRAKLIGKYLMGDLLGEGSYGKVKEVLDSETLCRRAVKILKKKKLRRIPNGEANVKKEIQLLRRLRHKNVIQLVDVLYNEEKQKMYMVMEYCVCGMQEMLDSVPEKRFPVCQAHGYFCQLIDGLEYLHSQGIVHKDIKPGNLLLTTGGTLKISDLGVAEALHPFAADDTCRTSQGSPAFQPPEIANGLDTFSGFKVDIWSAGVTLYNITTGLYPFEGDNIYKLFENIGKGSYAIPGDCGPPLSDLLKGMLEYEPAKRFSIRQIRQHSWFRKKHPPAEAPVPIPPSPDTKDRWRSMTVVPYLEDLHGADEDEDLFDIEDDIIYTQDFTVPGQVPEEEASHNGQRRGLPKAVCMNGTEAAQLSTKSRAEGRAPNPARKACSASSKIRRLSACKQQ
Note: in the data inactive means no Kd found up to 30 µM.

Sequence of Tyrosine-protein kinase ABL2 (P42684 whole entry): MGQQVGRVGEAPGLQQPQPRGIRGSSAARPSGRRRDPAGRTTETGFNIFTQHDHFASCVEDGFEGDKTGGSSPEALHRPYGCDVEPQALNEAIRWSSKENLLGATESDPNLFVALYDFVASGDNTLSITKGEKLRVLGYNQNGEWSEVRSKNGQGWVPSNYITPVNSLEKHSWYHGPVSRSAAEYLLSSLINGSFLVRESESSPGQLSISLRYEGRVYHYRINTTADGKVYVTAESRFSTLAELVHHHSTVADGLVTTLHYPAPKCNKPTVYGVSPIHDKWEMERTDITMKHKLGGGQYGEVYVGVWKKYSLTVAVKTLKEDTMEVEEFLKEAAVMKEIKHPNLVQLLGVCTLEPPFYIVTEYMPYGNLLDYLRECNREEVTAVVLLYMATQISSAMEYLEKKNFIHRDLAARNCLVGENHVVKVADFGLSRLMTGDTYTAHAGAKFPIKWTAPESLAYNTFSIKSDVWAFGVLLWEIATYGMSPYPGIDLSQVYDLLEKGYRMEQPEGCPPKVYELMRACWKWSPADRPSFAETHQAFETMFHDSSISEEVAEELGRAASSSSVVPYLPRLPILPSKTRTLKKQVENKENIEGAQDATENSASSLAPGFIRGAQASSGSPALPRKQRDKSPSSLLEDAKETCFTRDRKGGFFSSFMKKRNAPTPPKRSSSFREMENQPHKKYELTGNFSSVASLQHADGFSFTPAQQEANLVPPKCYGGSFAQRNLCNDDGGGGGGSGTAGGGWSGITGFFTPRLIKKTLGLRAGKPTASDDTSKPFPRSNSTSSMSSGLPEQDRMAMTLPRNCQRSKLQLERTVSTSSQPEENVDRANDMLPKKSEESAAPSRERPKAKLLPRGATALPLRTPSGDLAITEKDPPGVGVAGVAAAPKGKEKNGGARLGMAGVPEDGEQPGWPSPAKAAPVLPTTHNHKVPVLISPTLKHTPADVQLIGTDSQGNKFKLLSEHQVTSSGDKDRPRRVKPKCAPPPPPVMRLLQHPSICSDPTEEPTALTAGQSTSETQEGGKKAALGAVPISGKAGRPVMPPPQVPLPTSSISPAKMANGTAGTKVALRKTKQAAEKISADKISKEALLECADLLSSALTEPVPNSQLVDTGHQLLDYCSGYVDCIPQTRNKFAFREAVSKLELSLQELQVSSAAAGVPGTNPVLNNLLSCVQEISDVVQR
Sequence of Chromodomain-helicase-DNA-binding protein 4 (Q14839 whole entry): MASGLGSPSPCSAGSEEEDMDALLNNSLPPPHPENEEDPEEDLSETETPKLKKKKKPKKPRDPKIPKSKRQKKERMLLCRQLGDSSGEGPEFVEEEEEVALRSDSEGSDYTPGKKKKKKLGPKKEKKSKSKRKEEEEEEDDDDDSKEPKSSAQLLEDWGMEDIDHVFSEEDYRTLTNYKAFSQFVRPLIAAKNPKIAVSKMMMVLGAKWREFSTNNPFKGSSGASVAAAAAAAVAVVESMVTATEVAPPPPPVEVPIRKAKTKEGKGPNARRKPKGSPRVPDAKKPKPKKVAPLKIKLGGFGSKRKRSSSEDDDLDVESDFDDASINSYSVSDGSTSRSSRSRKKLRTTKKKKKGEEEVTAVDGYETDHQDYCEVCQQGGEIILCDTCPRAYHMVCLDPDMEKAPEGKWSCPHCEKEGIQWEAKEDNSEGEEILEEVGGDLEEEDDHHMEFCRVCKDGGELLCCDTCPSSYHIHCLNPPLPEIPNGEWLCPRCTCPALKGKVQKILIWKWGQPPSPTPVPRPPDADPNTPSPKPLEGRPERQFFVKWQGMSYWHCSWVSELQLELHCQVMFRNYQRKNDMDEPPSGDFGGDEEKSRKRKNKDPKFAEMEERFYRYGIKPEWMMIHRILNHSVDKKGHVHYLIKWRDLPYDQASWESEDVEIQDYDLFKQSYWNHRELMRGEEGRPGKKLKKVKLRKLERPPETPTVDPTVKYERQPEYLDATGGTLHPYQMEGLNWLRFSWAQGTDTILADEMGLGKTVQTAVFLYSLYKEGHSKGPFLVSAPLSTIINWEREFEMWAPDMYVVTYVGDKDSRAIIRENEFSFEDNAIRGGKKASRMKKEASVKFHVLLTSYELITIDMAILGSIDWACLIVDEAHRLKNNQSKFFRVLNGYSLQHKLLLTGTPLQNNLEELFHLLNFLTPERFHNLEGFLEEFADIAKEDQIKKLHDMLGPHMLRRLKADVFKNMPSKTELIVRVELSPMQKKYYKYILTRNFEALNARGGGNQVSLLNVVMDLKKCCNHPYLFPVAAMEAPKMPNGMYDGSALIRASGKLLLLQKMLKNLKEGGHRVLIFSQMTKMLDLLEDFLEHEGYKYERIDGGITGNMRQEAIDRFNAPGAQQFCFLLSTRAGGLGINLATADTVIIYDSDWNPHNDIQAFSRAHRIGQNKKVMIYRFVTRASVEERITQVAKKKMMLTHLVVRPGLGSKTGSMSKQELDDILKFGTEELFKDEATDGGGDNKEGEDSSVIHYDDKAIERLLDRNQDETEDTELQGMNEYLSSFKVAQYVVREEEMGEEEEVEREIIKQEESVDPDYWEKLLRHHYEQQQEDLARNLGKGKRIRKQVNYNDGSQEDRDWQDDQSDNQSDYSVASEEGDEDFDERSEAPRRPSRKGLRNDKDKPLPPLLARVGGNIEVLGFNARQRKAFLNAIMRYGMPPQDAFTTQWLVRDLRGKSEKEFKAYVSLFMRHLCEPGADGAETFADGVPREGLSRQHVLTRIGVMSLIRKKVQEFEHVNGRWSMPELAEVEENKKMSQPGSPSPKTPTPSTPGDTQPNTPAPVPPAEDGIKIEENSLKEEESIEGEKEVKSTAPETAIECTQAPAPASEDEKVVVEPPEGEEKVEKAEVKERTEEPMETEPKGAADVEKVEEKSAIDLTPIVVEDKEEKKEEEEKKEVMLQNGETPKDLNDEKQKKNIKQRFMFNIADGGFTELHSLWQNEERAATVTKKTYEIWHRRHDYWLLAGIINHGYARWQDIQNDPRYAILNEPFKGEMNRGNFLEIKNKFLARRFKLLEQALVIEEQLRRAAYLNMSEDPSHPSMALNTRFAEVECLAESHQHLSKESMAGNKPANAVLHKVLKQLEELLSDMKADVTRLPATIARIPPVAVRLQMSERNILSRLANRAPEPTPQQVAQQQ

Structure (SMILES) | Kd [1] | Kd [2] | Kd [3] | Kd [4] | Kd [5] | Kd [6] | Kd [7]
CNC(=O)c1ccc(Nc2ncc(C(F)(F)F)c(NCc3nccnc3N(C)S(C)(=O)=O)n2)cc1 [DEFACTINIB] | > 30 µM (inactive) | > 30 µM (inactive) | > 30 µM (inactive) | > 30 µM (inactive) | > 30 µM (inactive) | > 30 µM (inactive) | > 30 µM (inactive)
Cc1cc(C(=O)Nc2cc(Oc3ccc4nc(NC(=O)C5CC5)cn4n3)ccc2C)n(C)n1 [TAK-593] | 4.06 µM (active) | > 30 µM (inactive) | > 30 µM (inactive) | > 30 µM (inactive) | > 30 µM (inactive) | > 30 µM (inactive) | > 30 µM (inactive)
CN1CCN(c2nc(C3=C(c4c[nH]c5ccccc45)C(=O)NC3=O)c3ccccc3n2)CC1 [SOTRASTAURIN] | > 30 µM (inactive) | > 30 µM (inactive) | > 30 µM (inactive) | > 30 µM (inactive) | > 30 µM (inactive) | > 30 µM (inactive) | > 30 µM (inactive)
c1cc(OCCN2CCCCC2)cc(-c2n[nH]c3ccc(-c4nc[nH]n4)cc23)c1 [CC-401] | > 30 µM (inactive) | > 30 µM (inactive) | > 30 µM (inactive) | > 30 µM (inactive) | > 30 µM (inactive) | 32.4 µM (active) | > 30 µM (inactive)
